Four molecules from US6262051A, “Fungicidal methoximinomethyldioxazines” (Bayer Aktiengesellschaft, priority 1997, dated 2001) can be followed below.

SMILES strings stand for the structures. Some results are limits rather than exact numbers.

The subject of series [1] is Erysiphe graminis f.sp. hordei. Description: Example A: Erysiphe test (barley)/protective (N-methyl-pyrrolidone). Format: in vivo. Conditions: protective, 250 g/ha, 7 days after inoculation, vs untreated control. The protocol:
(§1) Erysiphe test (barley)/protective Solvent: 10 parts by weight of N-methyl-pyrrolidone Emulsifier: 0.6 parts by weight of alkylaryl polyglycol ether To produce a suitable preparation of active compound, 1 part by weight of active compound is mixed with the stated amount of solvent and emulsifier, and the concentrate is diluted with water to the desired concentration. To test for protective activity, young plants are sprayed with the preparation of active compound at the stated application rate. After the spray coating has dried on, the plants are dusted with spores of Erysiphe graminis f.sp. hordei. The plants are placed in a greenhouse at a temperature of approximately 20° C. and a relative atmospheric humidity of approximately 80% to promote the development of mildew postules.

Series [2] in a line: HPLC logP. Format: physicochemical. Conditions: Table 1.
The subject of series [3] is Pyricularia oryzae. Format: in vivo. Conditions: rice, protective; 750 g/ha; 4 days after inoculation; vs untreated control.
Series [4] relates to Erysiphe graminis f.sp. hordei. Description: Example B: Erysiphe test (barley)/curative. The format is in vivo. The following applies: curative (sprayed 48 hours after inoculation), 250 g/ha, 7 days after inoculation, vs untreated control. The protocol:
as §1, with “test (barley)/curative” for “test (barley)/protective”, “0.6 part” for “0.6 parts”, “for curative” for “for protective”, “young plants are dusted with spores of Erysiphe graminis f.sp. hordei. 48 hours after the inoculation, the” for “young”, “rate.” for “rate. After the spray coating has dried on, the plants are dusted with spores of Erysiphe graminis f.sp. hordei.”, “mildew postures.” for “mildew postules.”

The subject of series [5] is Plasmopara viticola. The series can be described thus: Example D: Plasmopara test (grapevine)/protective. Conditions: Plasmopara viticola, 144 h, protective, 6 days after inoculation, vs untreated control, read-out: Efficacy in %. The format is in vivo. The protocol: Plasmopara test (grapevine)/protective Solvent: 47 parts by weight of acetone Emulsifier: 3 parts by weight of alkylaryl polyglycol ether To produce a suitable preparation of active compound, 1 part by weight of active compound is mixed with the stated amount of solvent and emulsifier, and the concentrate is diluted with water to the desired concentration. To test for protective activity, young plants are sprayed with the preparation of active compound at the stated application rate. […]

Series [6] deals with Sphaerotheca fuliginea. Description: Example E: Sphaerotheca test (cucumber)/protective. Format: in vivo. The following applies: protective, 100 g/ha, 10 days after inoculation, vs untreated control. The method, then:
Sphaerotheca test (cucumber)/protective Solvent: 47 parts by weight of acetone Emulsifier: 3 parts by weight of alkylaryl polyglycol ether To produce a suitable preparation of active compound, 1 part by weight of active compound is mixed with the stated amount of solvent and emulsifier, and the concentrate is diluted with water to the desired concentration. To test for protective activity, young plants are sprayed with the preparation of active compound at the stated application rate. After the spray coating is dried on, the plants are inoculated with an aqueous spore suspension of Sphaerotheca fuliginea.

Series [7] concerns Erysiphe graminis f.sp. hordei. The series can be described thus: Example C: Erysiphe test (barley)/protective (N,N-dimethylacetamide). The format is in vivo. The following applies: protective, solvent N,N-dimethylacetamide, 250 g/ha, 7 days after inoculation, vs untreated control. The method, then: as §1, with “Solvent: 25” for “Solvent: 10”, “of N,N-dimethylacetamide” for “of N-methyl-pyrrolidone”, “0.6 part” for “0.6 parts”

As to `CON=C(C1=NOCCO1)c1ccccc1Oc1nccc(OCC(F)(F)F)n1` [Example 3], the values for the Efficacy in % in series [1], in series [3] and in series [4] were 100%, “at least 70%” and 100%, respectively. The molecule also yielded a chromatographic logP in series [2] of 2.6. The pest or weed control at 100 g/ha in series [5] is not above 100%.

Molecule `CCOc1ccnc(Oc2ccccc2C(=NOC)C2=NOCCO2)n1` [Example 5] came in with a chromatographic logP in series [2] of 2.2. The Efficacy in % entry in series [3] is given as “at least 70%”.

Molecule `CCCOc1ccnc(Oc2ccccc2C(=NOC)C2=NOCCO2)n1` [Example 6] came in with a chromatographic logP in series [2] of 2.5. Further, the Efficacy in % result is reported as “at least 70%” in series [3], 100% in series [4] and “more than 90%” in series [6].

With `CCCCCCOc1ccnc(Oc2ccccc2C(=NOC)C2=NOCCO2)n1` [Example 13], the chromatographic logP in series [2] was 3.8. Also, the Efficacy in % in series [7] was determined as 100%. The pest or weed control at 100 g/ha in series [5] was not above 100%.

For orientation: chromatographic logP means a lipophilicity value derived from retention on a column. High values mean a more lipophilic compound, low ones a more hydrophilic compound.
